Measured values reported in patent US12448371B2, “Inhibitor compounds” (Cincera Therapeutics Pty Ltd, priority 2019, dated 2025).
Where a name gives a salt, the structure may show the parent alone.

Biological target: T1, Des1 (h) (Homo sapiens, UniProt O15121)
T1 construct: endogenous in cells; host or cells: parental Jurkat cells
T1 sequence (O15121 1-323): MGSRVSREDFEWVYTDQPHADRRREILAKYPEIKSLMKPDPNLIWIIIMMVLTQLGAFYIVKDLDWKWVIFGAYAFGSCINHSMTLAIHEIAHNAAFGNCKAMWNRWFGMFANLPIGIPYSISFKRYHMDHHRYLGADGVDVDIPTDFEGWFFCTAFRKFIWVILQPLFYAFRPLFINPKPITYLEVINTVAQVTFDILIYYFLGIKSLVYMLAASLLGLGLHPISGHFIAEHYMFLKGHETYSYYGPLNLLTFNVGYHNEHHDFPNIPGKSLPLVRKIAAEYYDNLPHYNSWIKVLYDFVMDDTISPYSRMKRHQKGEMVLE
Assay: Measurement of Dihydroceramide Desaturase-1 (Des-1) activity in intact Jurkat cells labeled with DhCer-C6-NBD (HPLC)
Format: cell-based
Conditions: for IC50: intact Jurkat cells, given as concentration range, or <X / >X if measured at one concentration X only, read-out: Des1 (h) Jurkat IC50
Method: Measurement of Dihydroceramide Desaturase-1 (Des-1) Activity
Compounds were assessed for Des-1 inhibitory activity. Measurement of Des1 activity was performed by HPLC using intact Jurkat cells labeled with DhCer-C6-NBD as described previously (Munoz-Olaya, J. M. et al. ChemMedChem 2008, 3, 946-953) with modifications to enhance sensitivity and reproducibility. These modifications included the use of parental Jurkat cells, 0.5% serum in the culture media, and cell harvesting via centrifugation at 500×g to maximise ceramide extraction. Extracted samples (50 ul) were analysed on a Waters HPLC coupled to a fluorescence detector using a 30 cm C18 reverse-phase column eluted with 1 ml/min 20% H2O and 80% acetonitrile, both with a 0.1% of trifluoroacetic acid. NBD-labelled substrate and product were quantitated with an excitation and emission wavelengths of 465 nm and 530 nm, respectively.

Structure (SMILES) | IC50 | further results
N=C(NCC(O)CO)c1ccc(Nc2ncc(-c3ccc(C(F)(F)F)cc3)o2)cn1 (racemic) [Compound 91, rac-N-(2,3-dihydroxypropyl)-5-((5-(4-(trifluoromethyl)phenyl)oxazol-2-yl)amino)picolinimidamide] | > 1 µM | inhibition at 1 µM (Jurkat cells): 44%
O=C(NCC(O)CO)c1ccc(Nc2cnn(-c3ccc(C(F)(F)F)cn3)c2)cn1 (racemic) [Compound 104, rac-N-(2,3-Dihydroxypropyl)-5-((1-(5-(trifluoromethyl)pyridin-2-yl)-1H-pyrazol-4-yl)amino)picolinamide] | > 1 µM | inhibition at 1 µM (Jurkat cells): 26%
O=S(=O)(NCC(O)CO)c1ccc(Nc2ncc(-c3ccc(C(F)(F)F)cc3)o2)cn1 (racemic) [Example 16, rac-N-(2,3-Dihydroxypropyl)-5-((5-[4-(trifluoromethyl)phenyl]-1,3-oxazol-2-yl)amino)pyridine-2-sulfonamide] | > 1 µM | inhibition at 1 µM (Jurkat cells): 42%
O=C(NCC(O)CO)c1ccc(Nc2ncc(-c3ccc(C(F)(F)F)cc3)o2)cn1 (racemic) [Example 17, rac-N-(2,3-Dihydroxypropyl)-5-((5-[4-(trifluoromethyl)phenyl]-1,3-oxazol-2-yl)amino) picolinamide] | 0.001 to 0.01 µM | –
NNC(=O)c1ccc(Nc2ncc(-c3ccc(C(F)(F)F)cc3)o2)cn1 [Compound 92, 5-((5-(4-(Trifluoromethyl)phenyl)oxazol-2-yl)amino)picolinohydrazide] | 0.1 to 1 µM | –
O=CNNC(=O)c1ccc(Nc2ncc(-c3ccc(C(F)(F)F)cc3)o2)cn1 [Compound 93, N′-formyl-5-((5-(4-(trifluoromethyl)phenyl)oxazol-2-yl)amino)picolinohydrazide] | < 1 µM | –
CNNC(=O)c1ccc(Nc2ncc(-c3ccc(C(F)(F)F)cc3)o2)cn1 [Compound 94, N′-Methyl-5-((5-(4-(trifluoromethyl)phenyl)oxazol-2-yl)amino)picolinohydrazide] | > 1 µM | inhibition at 1 µM (Jurkat cells): 30%
O=C(NC[C@@H](O)CO)c1ccc(Nc2ncc(-c3ccc(C(F)(F)F)cn3)o2)cn1 [Compound 95, (R)—N-(2,3-dihydroxypropyl)-5-((5-(5-(trifluoromethyl)pyridin-2-yl)oxazol-2-yl)amino)picolinamide] | 0.01 to 0.1 µM | –
Cc1nc(Nc2ccc(C(=O)NC[C@@H](O)CO)nc2)oc1-c1ccc(C(F)(F)F)cc1 [Compound 96, (R)—N-(2,3-dihydroxypropyl)-5-((4-methyl-5-(4-(trifluoromethyl)phenyl)oxazol-2-yl)amino)picolinamide] | < 1 µM | –
O=C(NC[C@@H](O)CO)c1ccc(Nc2ncc(-c3ccc(F)c(F)c3)o2)cn1 [Compound 97, (R)-5-((5-(3,4-Difluorophenyl)oxazol-2-yl)amino)-N-(2,3-dihydroxypropyl)picolinamide] | – | % inhibition of Des1 at 0.1 μM (Jurkat cells): 55%
O=C(NC[C@@H](O)CO)c1ccc(Nc2ncc(-c3ccc(F)cc3)o2)cn1 [Compound 98, (R)—N-(2,3-dihydroxypropyl)-5-((5-(4-fluorophenyl)oxazol-2-yl)amino)picolinamide] | – | % inhibition of Des1 at 0.1 μM (Jurkat cells): 70%
N/C(=N\O)c1ccc(Nc2ncc(-c3ccc(Cl)cc3)o2)cn1 [Compound 100, 5-((5-(4-Chlorophenyl)oxazol-2-yl)amino)-N′-hydroxypicolinimidamide] | < 1 µM | –
N/C(=N\O)c1cnc(Nc2ncc(-c3ccc(Cl)cc3)o2)cn1 [Compound 101, 5-((5-(4-Chlorophenyl)oxazol-2-yl)amino)-N′-hydroxypyrazine-2-carboximidamide] | < 1 µM | –
Oc1ccc(Nc2ncc(-c3ccc(OC(F)(F)F)cc3)o2)nc1 [Compound 105, 6-((5-(4-(Trifluoromethoxy)phenyl)oxazol-2-yl)amino)pyridin-3-ol] | < 1 µM | –
Cn1nc(Nc2cnc(/C(N)=N/O)cn2)cc1-c1ccc(C(F)(F)F)cn1 [Compound 110, N′-Hydroxy-5-((1-methyl-5-(5-(trifluoromethyl)pyridin-2-yl)-1H-pyrazol-3-yl)amino)pyrazine-2-carboximidamide] | > 1 µM | inhibition at 1 µM (Jurkat cells): 31%
N/C(=N/O)c1ccc(Nc2ncc(-c3ccc(F)cn3)o2)cn1 [Compound 117, 5-((5-(5-Fluoropyridin-2-yl)oxazol-2-yl)amino)-N′-hydroxypicolinimidamide] | > 1 µM | inhibition at 1 µM (Jurkat cells): 36%
N/C(=N\O)c1ccc(Nc2ncc(-c3ccc(C(F)(F)F)nn3)o2)cn1 [Compound 119, N′-Hydroxy-5-((5-(6-(trifluoromethyl)pyridazin-3-yl)oxazol-2-yl)amino)picolinimidamide] | > 1 µM | inhibition at 1 µM (Jurkat cells): 44%
O=C(NO)c1ccc(Nc2ncc(-c3ccc(Cl)cc3)o2)cn1 [Example 1, 5-((5-(4-Chlorophenyl)oxazol-2-yl)amino)-N-hydroxypicolinamide] | 0.1 to 1 µM | –
O=C(NO)c1ccc(Nc2ncc(-c3ccc(C(F)(F)F)cc3)o2)cn1 [Example 2, N-Hydroxy-5-((5-(4-(trifluoromethyl)phenyl)oxazol-2-yl)amino)picolinamide] | 0.1 to 1 µM | –
N/C(=N\O)c1ccc(Nc2ncc(-c3ccc(C(F)(F)F)cc3)o2)nc1 [Example 3, N′-Hydroxy-6-((5-(4-(trifluoromethyl)phenyl)oxazol-2-yl)amino)nicotinimidamide hydrochloride] | 0.1 to 1 µM | –
ONc1ccc(Nc2ncc(-c3ccc(C(F)(F)F)cc3)o2)cn1 [Example 4, N-(6-(Hydroxyamino)pyridin-3-yl)-5-(4-(trifluoromethyl)phenyl)oxazol-2-amine] | 1 to 10 µM | –
N=C(NO)c1ccc(Nc2nnc(-c3ccc(C(F)(F)F)cc3)o2)cn1 [Example 5, 5-((5-[4-(Trifluoromethyl)phenyl]-1,3,4-oxadiazol-2-yl)amino)-N-hydroxy-pyridine-2-carboximidamide] | 0.1 to 1 µM | –
N=C(NO)c1ccc(Nc2nnc(-c3ccc(C(F)(F)F)c(F)c3)o2)cn1 [Example 6, 5-((5-[3-Fluoro-4-(trifluoromethyl)phenyl]-1,3,4-oxadiazol-2-yl)amino)-N-hydroxypyridine-2-carboximidamide] | 0.1 to 1 µM | –
O=c1cc(Nc2nnc(-c3ccc(C(F)(F)F)cc3)o2)ccn1O [Example 7, 1-Hydroxy-4-((5-[4-(trifluoromethyl)phenyl]-1,3,4-oxadiazol-2-yl)amino)-1,2-dihydropyridin-2-one] | < 1 µM | –
O=C(NO)c1ncc(Nc2nc(-c3ccc(Cl)cc3)cs2)cn1 [Example 9, 5-([4-(4-Chlorophenyl)-1,3-thiazol-2-yl]amino)-N-hydroxypyrimidine-2-carboxamide] | > 10 µM | % inhibition of Des1 at 10 μM (Jurkat cells, 10 μM): 26%
O=C(NO)c1ncc(Nc2ncc(-c3ccc(C(F)(F)F)cc3)o2)cn1 [Example 10] | 1 to 10 µM | –
O=C(NO)c1ccc(Nc2ncc(-c3ccc(C(F)(F)F)cc3)o2)nn1 [Example 11, N-Hydroxy-6-((5-[4-(trifluoromethyl)phenyl]-1,3-oxazol-2-yl)amino)pyridazine-3-carboxamide] | 0.1 to 1 µM | –
O=C(NO)c1ncc(Nc2nc(-c3ccc(C(F)(F)F)cc3)co2)cn1 [Example 12, N-Hydroxy-5-((4-[4-(trifluoromethyl)phenyl]-1,3-oxazol-2-yl)amino)pyrimidine-2-carboxamide] | 1 to 10 µM | –
O=C(NO)c1ccc(Nc2nc(-c3ccc(C(F)(F)F)cc3)co2)nn1 [Example 13, N-Hydroxy-6-((4-(4-(trifluoromethyl)phenyl)oxazol-2-yl)amino)pyridazine-3-carboxamide] | 1 to 10 µM | –
